Experimental data taken from patent US9604899B2, “Bipolar trans carotenoid salts and their uses” (Diffusion Pharmaceuticals LLC, priority 2002, dated 2017).

Columns and labels:
[1] = solubility in sodium carbonate-deionized water solution (pH 8.0); type: physicochemical; details: pH 8, aqueous buffer, thermodynamic from solid, pH 8.0, room temperature, read-out: solubility in water adjusted to pH 8.0 with very dilute sodium carbonate
Experimental: A BTCS such as TSC dissolves in very dilute sodium carbonate solutions. A dilute, eg 0.00001-0.001M, solution of sodium carbonate can be added, dropwise, to deionized water until the pH is 8.0 (the pH of deionized water is usually 5-6). This only takes a few drops of the very dilute sodium carbonate per, say, 50 mls of deionized water. This sodium carbonate-deionized water solution is capable of completely dissolving a large amount of TSC (around 10 mg/ml)—which is remarkable considering the hydrophobicity of the carotenoid portion of the BTCS.

[2] = dissolution in normal (isotonic) saline and other salt solutions; type: physicochemical; details: up to several milligrams per ml added
Experimental: Large volumes (as much as 3 times the estimated blood loss) of isotonic saline (also called normal saline) are infused as a treatment for hemorrhagic shock. The isotonic saline contains 9 g NaCl per liter of water so as not to disturb the ionic strength of the plasma once it is infused into the body. […] About 50% of the TSC dissolves in normal saline no matter how much TSC is added (up to several milligrams per ml), which means that undissolved particles of TSC are still present. […] The actual composition of the stock solution can be verified using UV-visible spectroscopy. This stock solution can be added to normal saline and the TSC remains dissolved.
This method can be used to dissolve a BTCS in other types of sodium chloride solutions, as well as in solutions of other salts such as KCl, Na2SO4, lactate, etc. Several, eg 1-3 mg/ml, can be put into solution in this manner.

[3] = solubility in common organic solvents; type: physicochemical; details: chloroform, DMSO, pyridine, methanol, acetone, glacial acetic acid
From the text: Attempts were made to dissolve TSC in order to obtain a ^1H NMR spectrum. […] The TSC produced from this project was characterized by IR, UV, HPLC and elemental analyses. […] UV and HPLC were consistent with authentic TSC.^7 Elemental analyses gave satisfactory values.

[4] = diffusivity of oxygen through aqueous solutions
hemorrhaged rats [5] = assay: hemorrhagic shock in rats (Roy et al); details: rat, in vivo
Experimental: In Roy et al, Shock 10, 213-7. (1998), hemorrhaged rats (55% blood volume) were given a bolus of trans sodium crocetinate (TSC) after the hemorrhage ended, followed by saline after another 30 minutes. […] Whole-body oxygen consumption increased in the TSC group, reaching 75% of normal resting value after about 15 minutes.

[6] = TSC by inhalation, drug in blood stream; type: in vivo, rat; details: rats
Experimental: TSC has been given to rats via an inhalation route. Ten rats were given TSC directly into the lungs. This was done by inserting a tube into the trachea, and nebulizing 0.2 ml of TSC solution (TSC dissolved in dilute sodium carbonate solution) with about 3 to 6 mls of air. For all dosages studied (0.5-2 mg/kg), about 20% of the drug was present in the blood stream within one minute after it was given.

[7] = oral administration of TSC (gavage), drug in blood stream; type: in vivo, rat; details: two rats, 15 to 30 minutes after being given
From the text: TSC has been shown, in rats, to be absorbed into the blood stream when administered orally (via a gavage technique). […] The maximum amount absorbed orally actually occurred earlier than that time.

[8] = simulated TSC molecule surrounded with water molecules; cited from earlier work
hemorrhaged rats [9] = details: cited from earlier work
[10] = tested on: rat model of acute hypoxia; details: 10% oxygen air mixture, TSC given after 10 minutes; cited from earlier work
[11] = stability (aqueous solution, dry form); details: tap, distilled, deionized water
[12] = background statement; cited from earlier work

## CC(/C=C/C=C(\C)C(=O)[O-])=C\C=C\C=C(C)\C=C\C=C(/C)C(=O)[O-].[Na+].[Na+] [TSC, Trans Sodium Crocetinate]
[1]
  solubility: ~10000 µg/mL
[2]
  fraction of added TSC that dissolves in normal saline: About 50%
[3]
  solubility in most common organic solvents: practically insoluble
[4]
  increase of diffusivity of oxygen through aqueous solutions: about 30%
Hemorrhaged rats [5]
  oxygen consumption of rats undergoing hemorrhagic shock: increase the oxygen consumption
[6]; inhalation, 0.8-1.6 mg/kg
  period the drug was present in the blood stream: at least two hours
[6]; nebulized into trachea, 0.5-2 mg/kg, within one minute
  fraction of the drug present in the blood stream: about 20%
[7]
  fraction of the dosage given present in the blood stream: 1 to 2%
[8]
  computational increase in diffusivity: ~30%
Hemorrhaged rats [9]; hemorrhaged rats, after about 15 minutes
  whole-body oxygen consumption: 75 % of normal resting value
Hemorrhaged rats [9]; rats hemorrhaged 55% blood volume, TSC bolus after hemorrhage, saline after 30 minutes
  survival: All of the TSC-treated animals lived
[10]
  survival and hemodynamic stability: all survived with good hemodynamic stability for over two hours
Solubility in water
  solubility in deionized water versus normal water: more soluble in deionized water
Solubility in water; water
  solubility: ~10000 µg/mL
[11]
  stability of solutions in water: only stable if the pH is adjusted so as to make the solution basic

## CC(/C=C/C=C(\C)C(=O)O)=C\C=C\C=C(C)\C=C\C=C(/C)C(=O)O [crocetin]
[12]
  solubility in water: only sparingly soluble in water

## CC(/C=C/C=C(\C)C(=O)O[C@@H]1O[C@H](CO[C@@H]2O[C@H](CO)[C@@H](O)[C@H](O)[C@H]2O)[C@@H](O)[C@H](O)[C@H]1O)=C\C=C\C=C(C)\C=C\C=C(/C)C(=O)O[C@@H]1O[C@H](CO[C@@H]2O[C@H](CO)[C@@H](O)[C@H](O)[C@H]2O)[C@@H](O)[C@H](O)[C@H]1O [crocin]
[12]
  solubility in water: significant solubility in water
